This is an account of results in paper PMC9147192, “Small Molecule Arranged Thermal Proximity Coaggregation (smarTPCA)—A Novel Approach to Characterize Protein–Protein Interactions in Living Cells by Similar Isothermal Dose–Responses” (International Journal of Molecular Sciences, 2022).

The term ΔTm denotes the shift of the melting midpoint relative to a reference.

The target of assay [1] is T1, MAPKAPK3 (Homo sapiens, UniProt Q16644). Kind of assay: TPP-TR in living HL-60 cells. Conditions: 20 μM, single set (no replicates). The format is cell-based. As to the method:
(§1) HL-60 cells (ATCC No. CCL-240) were expanded to about […] in 80 mL cell culture medium (RPMI-1640 supplemented with 10% (v/v) FBS, 1% (v/v) penicillin-streptomycin and 1% (v/v) L-glutamine solution) and divided into four aliquots (20 mL each, 25 million cells per flask). […] The same volume of DMSO was added to the remaining aliquot serving as the vehicle (DMSO) control. After incubation (1 h, 37 °C, 5% CO2, in cell culture CO2 incubator), the cell suspensions were transferred into 50 mL conical tubes, cell number and viability were determined, and after centrifugation (300 relative centrifugal force (rcf), 3 min, room temperature (r.t.)), the supernatants were completely removed and discarded. The cells were washed using 20 mL Dulbecco’s phosphate-buffered saline (PBS), respectively, by resuspension and centrifugation (300 rcf, 3 min, r.t.). After the complete removal of the supernatants, the cells were transferred into pre-weighed 2 mL Eppendorf tubes using 0.5 mL PBS (r.t.), respectively, for resuspending. After centrifugation (300 rcf, 3 min, r.t.) and removing as much as possible of the supernatants, the cell wet weights were determined.
(§2) The suspensions were shortly centrifuged (1 s or less) using a benchtop centrifuge that was equipped with an inset for PCR tubes to release trapped air and to achieve an even liquid level without pelleting the cells. The 100 µL cell suspensions were then temperature treated by a 7 min pre-incubation at r.t., a 3 min incubation at the following different temperatures in the PCR cycler (DNA Engine Tetrad 2, lid temperature 70 °C, gradient block 1: 36–55 °C, gradient block 2: 48–67 °C), and a 3 min post-incubation at r.t. in a metal heating block for uniform heat dissipation.
(§3) The cells were lysed by four freeze/thaw cycles consisting of thawing the samples (in a heat block set to 25 °C and shaking at 1250 rpm) accompanied by mixing them several times by inversion and then shock freezing them again in liquid nitrogen. The resulting lysates were kept cold (on ice or 4 °C) from then on. After centrifugation (20,000 rcf, 30 min, 4 °C) to pellet the cell debris together with precipitated and aggregated proteins, the supernatants were recovered and, after determining the total protein concentration (Pierce 660 nm Protein Assay, BSA as standard), the resulting cell extracts containing the fraction of soluble, non-denatured proteins were shock frozen in liquid nitrogen and stored at −80 °C.
(§4) For each sample set comprising ten temperature range samples, the same volume of the cell extracts containing the fraction of soluble, non-denatured proteins was used for further analysis. Volume calculation for 30 µg total protein was performed as described for SDS-PAGE and immunoblotting. The calculated volume was respectively transferred into 0.5 mL LoBind Eppendorf tubes and evaporated to dryness using vacuum centrifugation (SpeedVac concentrator, Eppendorf, Hamburg, Germany). The dried proteins were each reconstituted in 10 µL of SDS sample buffer (containing DTT) and incubated for 30 min at 50 °C with shaking (700 rpm). 1.111 µL 1 M iodoacetamide (IAA) was added to each sample (final 100 mM IAA), then the samples were mixed and incubated for 30 min at r.t. in the dark. Sample quality was controlled by SDS-PAGE/silver staining using 0.926 µL of each sample (2.5 µg on average for the two lowest temperature samples; 26-well 4–12% Bis-Tris polyacrylamide gels, Novex NuPAGE, Thermo Scientific; 15 min at 50 V, about 1.5 h at 200 V using the recommended MOPS running buffer).

In assay [2] the target is MYLK (Homo sapiens, UniProt Q15746). Nature of the assay: TPP-TR in living HL-60 cells. It is filed as cell-based. To be noted: 20 μM, single set (no replicates). As to the method: as §1, §2, §3, §4
Sequence of MYLK (Q15746 whole entry): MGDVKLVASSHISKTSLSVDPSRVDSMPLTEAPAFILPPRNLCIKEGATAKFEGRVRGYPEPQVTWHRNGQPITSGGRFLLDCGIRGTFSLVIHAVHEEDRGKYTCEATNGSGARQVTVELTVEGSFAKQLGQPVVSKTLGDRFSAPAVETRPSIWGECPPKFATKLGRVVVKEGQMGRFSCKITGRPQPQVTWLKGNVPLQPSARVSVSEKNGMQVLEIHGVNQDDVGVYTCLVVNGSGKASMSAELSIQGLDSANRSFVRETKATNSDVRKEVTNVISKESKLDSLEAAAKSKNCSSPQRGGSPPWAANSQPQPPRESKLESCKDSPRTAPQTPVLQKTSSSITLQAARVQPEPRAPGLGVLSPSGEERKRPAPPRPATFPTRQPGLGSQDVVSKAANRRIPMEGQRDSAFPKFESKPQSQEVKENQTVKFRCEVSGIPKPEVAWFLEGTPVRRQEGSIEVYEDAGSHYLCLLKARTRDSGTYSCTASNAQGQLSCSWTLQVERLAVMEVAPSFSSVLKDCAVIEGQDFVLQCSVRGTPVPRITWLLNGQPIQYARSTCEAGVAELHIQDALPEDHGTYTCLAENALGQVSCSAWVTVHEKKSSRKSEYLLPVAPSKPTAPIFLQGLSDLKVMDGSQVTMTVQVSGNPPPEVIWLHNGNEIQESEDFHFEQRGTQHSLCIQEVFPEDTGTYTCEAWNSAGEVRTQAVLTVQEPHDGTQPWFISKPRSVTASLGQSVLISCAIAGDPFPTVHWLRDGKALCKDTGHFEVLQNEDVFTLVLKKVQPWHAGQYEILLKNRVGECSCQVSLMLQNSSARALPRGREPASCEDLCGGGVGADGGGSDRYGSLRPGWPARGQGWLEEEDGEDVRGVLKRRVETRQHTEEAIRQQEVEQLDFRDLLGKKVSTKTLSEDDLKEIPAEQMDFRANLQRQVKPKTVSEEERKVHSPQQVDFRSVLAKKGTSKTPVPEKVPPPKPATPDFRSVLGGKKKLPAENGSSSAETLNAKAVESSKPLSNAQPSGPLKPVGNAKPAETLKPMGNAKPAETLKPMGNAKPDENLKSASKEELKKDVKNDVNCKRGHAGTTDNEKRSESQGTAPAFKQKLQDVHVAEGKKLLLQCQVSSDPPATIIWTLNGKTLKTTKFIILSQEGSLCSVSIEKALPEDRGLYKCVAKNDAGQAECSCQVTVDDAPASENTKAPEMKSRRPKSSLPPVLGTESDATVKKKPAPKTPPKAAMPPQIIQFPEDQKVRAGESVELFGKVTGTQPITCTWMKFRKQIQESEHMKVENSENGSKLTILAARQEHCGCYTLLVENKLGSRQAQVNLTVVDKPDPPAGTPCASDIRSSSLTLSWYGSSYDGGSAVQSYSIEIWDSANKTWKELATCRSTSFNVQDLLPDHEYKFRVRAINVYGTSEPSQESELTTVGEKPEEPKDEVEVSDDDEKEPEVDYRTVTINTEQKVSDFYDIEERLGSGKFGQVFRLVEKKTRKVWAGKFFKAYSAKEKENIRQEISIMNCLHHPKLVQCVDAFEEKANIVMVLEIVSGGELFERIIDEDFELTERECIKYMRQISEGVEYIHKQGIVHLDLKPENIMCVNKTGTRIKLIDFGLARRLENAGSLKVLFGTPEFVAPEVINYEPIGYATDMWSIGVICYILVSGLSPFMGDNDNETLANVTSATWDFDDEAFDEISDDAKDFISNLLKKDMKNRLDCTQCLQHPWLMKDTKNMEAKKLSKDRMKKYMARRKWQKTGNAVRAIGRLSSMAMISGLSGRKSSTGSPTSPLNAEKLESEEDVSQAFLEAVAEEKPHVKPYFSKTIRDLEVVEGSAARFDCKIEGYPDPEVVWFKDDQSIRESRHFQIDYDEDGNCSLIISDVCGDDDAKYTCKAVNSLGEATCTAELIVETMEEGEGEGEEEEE
The target of assay [3] is T2, MAPKAPK2 (Homo sapiens, UniProt P49137). Nature of the assay: TPP-TR in living HL-60 cells. Conditions: 20 μM, single set (no replicates). The format is cell-based. On the procedure:
as §1, §2, §3, §4

Assay [4] has as its target MAPK8 (Homo sapiens, UniProt P45983). Nature of the assay: TPP-CCR in living HL-60 cells. To be noted: […] °C, TMT-MS.
Assay [5] deals with T1, MAPKAPK3. Kind of assay: CETSA in living HL-60 cells, immunoblot. The format is cell-based. On the procedure:
(§5) First, we conducted CETSA experiments according to Jafari et al.. […] Subsequent SDS-PAGE and immunoblotting were performed according to optimized conditions allowing for parallel detection of MAPK14, MAPKAPK2, MAPKAPK3, and GSK-3α (Supplementary Figure S1).
as §1, §2, §3
(§6) For each sample set comprising either ten temperature range samples or ten compound concentration range samples, the same volume of the cell extracts containing the fraction of soluble, non-denatured proteins was used for further analysis. This volume was determined using the two lowest temperature samples (36.5 and 41.2 °C) per temperature range sample set so that they contained an average of 5 µg total protein (e.g., 2.78 µL for all temperature range samples of a sample set whose two lowest temperature samples contain an average of 1.8 mg/mL protein). For the compound concentration range experiments, all samples of a set were used for averaging.
For orientation: Immunoblotting shows a protein as a band on a membrane.

For assay [6], the target named is T2, MAPKAPK2. Kind of assay: CETSA in living HL-60 cells, immunoblot. It is filed as cell-based. To be noted: for Top: top plateau of melting curve fit. As to the method: as §5, §1, §2, §3, §6
Assay [7] addresses T3, GSK-3α (Homo sapiens, UniProt P49840).
T3 construct: parallel detection of MAPK14, MAPKAPK2, MAPKAPK3, and GSK-3α; endogenous in cells; host or cells: HL-60 (ATCC CCL-240), living cells or cell extract
Kind of assay: CETSA in living HL-60 cells, immunoblot. The format is cell-based. As to the method:
as §5, §1, §2, §3, §6

For assay [8], the system named is MAPKAPK2 phosphorylation. Nature of the assay: MAPKAPK2 phosphorylation-dependent electrophoretic mobility shift (PDEMS) immunoblot, living HL-60 cells. To be noted: 20 µM inhibitor.
Where [9] appears, read: MAPKAPK3, living cells, immunoblot.
[10] abbreviates: living HL-60 cells, 20 µM inhibitor, immunoblot.
[11] abbreviates: living HL-60 cells, 20 µM inhibitor, immunoblot, 20 µM.
Setting [12] is: MAPKAPK2, living cells, immunoblot.
The mark [13] stands for this setting: GSK-3α, living cells, immunoblot.
Where [14] appears, read: living HL-60 cells, 20 µM inhibitor, immunoblot, read-out: ΔTm to DMSO (GSK-3α).

Values joined by “and” are separate entries in the source; they are usually repeats but may differ in a detail not shown here. Equal values may be shown once. Read-outs that look alike come from different tables or passages of the source.

T1 sequence (Q16644 whole entry): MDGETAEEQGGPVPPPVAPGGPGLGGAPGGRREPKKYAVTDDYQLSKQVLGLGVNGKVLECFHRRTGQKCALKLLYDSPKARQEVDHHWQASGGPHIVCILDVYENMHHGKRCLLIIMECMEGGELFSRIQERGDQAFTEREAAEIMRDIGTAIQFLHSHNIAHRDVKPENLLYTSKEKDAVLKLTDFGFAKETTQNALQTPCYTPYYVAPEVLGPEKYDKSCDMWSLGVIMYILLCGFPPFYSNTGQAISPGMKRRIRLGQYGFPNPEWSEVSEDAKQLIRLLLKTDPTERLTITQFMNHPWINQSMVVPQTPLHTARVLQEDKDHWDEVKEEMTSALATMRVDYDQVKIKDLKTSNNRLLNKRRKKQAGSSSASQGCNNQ
T3 sequence (P49840 whole entry): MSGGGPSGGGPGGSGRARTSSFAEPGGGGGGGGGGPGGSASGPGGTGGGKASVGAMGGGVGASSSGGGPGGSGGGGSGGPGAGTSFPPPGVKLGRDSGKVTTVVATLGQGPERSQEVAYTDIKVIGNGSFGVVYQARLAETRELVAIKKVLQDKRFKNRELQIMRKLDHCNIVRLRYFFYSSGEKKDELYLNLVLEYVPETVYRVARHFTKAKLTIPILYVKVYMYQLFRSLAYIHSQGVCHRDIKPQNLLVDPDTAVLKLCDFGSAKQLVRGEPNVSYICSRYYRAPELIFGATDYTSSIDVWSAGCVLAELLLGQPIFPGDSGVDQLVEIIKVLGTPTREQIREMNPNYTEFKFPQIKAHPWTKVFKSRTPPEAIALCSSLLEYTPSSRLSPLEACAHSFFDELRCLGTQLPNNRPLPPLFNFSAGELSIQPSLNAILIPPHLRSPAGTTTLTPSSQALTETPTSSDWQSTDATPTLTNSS
T2 sequence (P49137 whole entry): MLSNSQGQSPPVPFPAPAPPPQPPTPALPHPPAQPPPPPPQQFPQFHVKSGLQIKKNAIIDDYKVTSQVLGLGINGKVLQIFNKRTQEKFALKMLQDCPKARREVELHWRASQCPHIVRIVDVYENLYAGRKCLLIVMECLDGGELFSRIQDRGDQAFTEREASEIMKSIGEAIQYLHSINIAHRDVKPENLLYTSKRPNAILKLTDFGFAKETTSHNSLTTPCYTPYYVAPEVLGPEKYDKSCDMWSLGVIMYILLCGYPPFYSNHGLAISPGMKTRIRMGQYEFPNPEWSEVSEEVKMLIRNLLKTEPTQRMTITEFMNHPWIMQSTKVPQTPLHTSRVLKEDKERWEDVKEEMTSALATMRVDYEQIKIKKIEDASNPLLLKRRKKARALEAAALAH
Sequence of MAPK8 (P45983 whole entry): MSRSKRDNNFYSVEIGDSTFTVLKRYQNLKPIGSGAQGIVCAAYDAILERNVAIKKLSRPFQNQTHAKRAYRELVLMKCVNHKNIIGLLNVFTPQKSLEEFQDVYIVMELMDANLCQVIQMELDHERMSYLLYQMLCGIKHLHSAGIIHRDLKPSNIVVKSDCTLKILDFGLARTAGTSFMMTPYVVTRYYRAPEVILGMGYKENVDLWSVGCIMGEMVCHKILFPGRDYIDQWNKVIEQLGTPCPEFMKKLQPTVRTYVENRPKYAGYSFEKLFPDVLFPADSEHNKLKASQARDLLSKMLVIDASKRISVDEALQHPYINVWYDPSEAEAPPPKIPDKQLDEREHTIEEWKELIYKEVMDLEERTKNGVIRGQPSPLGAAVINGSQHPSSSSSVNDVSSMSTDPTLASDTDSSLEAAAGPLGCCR

Take `Cn1c(NC[C@@H](N)Cc2ccccc2)nc(-c2ccncc2)c(-c2ccc3ccccc3c2)c1=O` [AMG-548]: in assay [1], the “thermal stabilization in melting curves (MAPKAPK3)” value is reported as “thermal stabilizations”. Further, the “thermal stabilization in melting curves (MYLK)” value in assay [2] is “thermal stabilizations”. Moreover, the “thermal stabilization in melting curves (MAPKAPK2)” value in assay [3] is given as “thermal stabilizations”. For the same compound, the “Hill slope (MAPK8)” value in assay [4] worked out at 0.24. In addition, the Tm in assay [5] (setting [9]) is 54.68 °C; in assay [6] (setting [12]), 54.39 °C; in assay [7] (setting [13]), 53.26 °C. The figures for the “ΔTm to DMSO” value in assay [5] (setting [9]) and in assay [6] (setting [12]) were 6.62 °C and 5.18 °C, respectively. Moreover, the “Tm (MAPKAPK3)” value in assay [5] (setting [10]) was determined as 54.68 °C. Further, in assay [5] (setting [11]), the “ΔTm to DMSO (MAPKAPK3)” value was 6.6 °C and 6.62 °C. Also, the “Tm (MAPKAPK2)” value in assay [6] (setting [10]) was determined as 54.39 °C. Further, the “ΔTm to DMSO (MAPKAPK2)” value in assay [6] (setting [11]) is 5.2 °C and 5.18 °C. Further, in assay [7] (setting [10]), the “Tm (GSK-3α)” value was determined as 53.26 °C. In assay [7] (setting [14]), the ΔTm at 20 µM was -0.71 °C. In assay [8], the “MAPKAPK2 phosphorylation (band pattern, PDEMS)” value (“MAPKAPK2 phosphorylation” below) is on record as “inhibited apparent MAPKAPK2 phosphorylation”.

With `Cc1cnc(Nc2ccc(F)cc2Cl)nc1-c1c[nH]c(C(=O)N[C@H](CO)c2cccc(Cl)c2)c1` [ERK 11e], the ΔTm at 20 µM in assay [5] (HL-60, read-out: ΔTm to DMSO (MAPKAPK3)) is 0.26 °C; in assay [6] (HL-60, read-out: ΔTm to DMSO (MAPKAPK2)) it was -0.02 °C; in assay [7] (HL-60, read-out: ΔTm to DMSO (GSK-3α)), 0.14 °C. In addition, in assay [6] (MAPKAPK2, living cells), the Top worked out at 36.1%. In addition, the Tm in assay [7] (setting [13]) was determined as 54.11 °C. The “Tm (GSK-3α)” value in assay [7] (setting [10]) is 54.11 °C. Further, the “MAPKAPK2 phosphorylation” value in assay [8] was “double band”.

As for `C[S+]([O-])c1ccc(-c2nc(-c3ccncc3)c(-c3ccc(F)cc3)[nH]2)cc1` (centres unmarked) [SB203580], in assay [1], the “thermal stabilization in melting curves (MAPKAPK3)” value was “thermal stabilizations”. Besides, in assay [2], the “thermal stabilization in melting curves (MYLK)” value is listed as “thermal stabilizations”. In addition, the “thermal stabilization in melting curves (MAPKAPK2)” value in assay [3] is recorded as “thermal stabilizations”. The “Hill slope (MAPK8)” value in assay [4] worked out at 0.44. The figures for the Tm in assay [5] (setting [9]) and in assay [7] (setting [13]) were 51.56 °C and 54.03 °C, respectively. The “Tm (MAPKAPK3)” value in assay [5] (setting [10]) was 51.56 °C. This compound returned a Top in assay [6] (MAPKAPK2, living cells) of 87.0%. In assay [7] (setting [13]), the “ΔTm to DMSO” value came out at 0.0529 °C. In addition, the “Tm (GSK-3α)” value in assay [7] (setting [10]) was 54.03 °C. The ΔTm at 20 µM in assay [7] (setting [14]) stood at 0.05 °C. Further, in assay [8], the “MAPKAPK2 phosphorylation” value is reported as “inhibited apparent MAPKAPK2 phosphorylation”.
